{
  "source": "patent US20230101768A1",
  "about": "“METHOD TO TREAT MANGANESE TOXICITY AND MANGANESE-INDUCED PA[…] HUMANS” (priority 2021, published 2023)",
  "key": {"SLC30A10": {"system": "SLC30A10", "conditions": "HepG2 cells, 250 μM manganese, immunoblot", "experimental": "Immunoblots. HepG2 cells were cultured in 35 mm dishes, treated with or without manganese, MG132 and/or prolyl hydroxylase inhibitors, and scrapped using 200 μl of RIPA buffer (50 mM Tris-HCl, pH7.4; 150 mM NaCl; 1Mm EDTA; 1% Triton; 0.25% sodium deoxycholate; protease inhibitors cocktail (Thermo A32953)). Whole-cell lysates were prepared by adding loading buffer (50 mM Tris-HCl, pH 7.4; 2% sodium dodecyl sulfate; 10% glycerol, 0.1 M dithiothreitol; 0.01% (weight/volume) bromophenol blue) and boiling the samples for 5 min. Equal volumes of samples were loaded per lane. Further processing was as described by us previously (47). Images were quantified using ImageQuant TL software (GE).\nAntibodies and chemicals. The inventors used the following commercial primary antibodies in this study: rabbit polyclonal anti-HIF1α (Abcam, Ab2185), rabbit polyclonal anti-HIF2α (Novus, NB100-122), rabbit monoclonal anti-HIF1α proline 564 (Cell signaling, 3434S), and mouse monoclonal anti-tubulin (Sigma, T5168). […] Sources of chemicals not provided elsewhere were Thermo Fisher Scientific or Sigma-Aldrich."}, "SLC39A14": {"system": "SLC39A14", "conditions": "oral manganese ~15 mg/kg daily from birth until 8 weeks", "experimental": "(§1) A well-characterized drinking water-based manganese exposure regimen was used to model human environmental manganese exposure by providing mice with ˜50 mg manganeseCl2.4H2O/kg body weight daily (˜15 mg absolute manganese/kg per day) from birth until 8 weeks of age. This, and related similar, dosing regimens: 1) approximate the increase in manganese exposure in humans consuming well water contaminated with 1.5 mg manganese/L, which is the median well water concentration associated with neurological deficits in children; 2) increase brain manganese levels by ˜2-3 fold, similar to human patients; 3) produce measurable neurobehavioral deficits without overt toxicity; and 4) model exposure to manganese in developmentally-sensitive early-life and adolescent periods (11). Pre-weaning manganese was delivered by pipette directly into the mouth, and post-weaning manganese was delivered in drinking water using procedures described in detail in ref. (11). In brief, pre-weaning dosing was adjusted to each animal's body weight. For this, a stock solution of 69.2 mg absolute manganese/ml prepared in milliQ water was diluted in milliQ water containing 2.5% (wt/vol) of the natural sweetener Stevia (to facilitate intake by pups), and the required manganese amount (0.2 μl manganese stock/g body weight) was delivered in a dose of ˜5-10 μl/animal. For post-weaning exposure, a 27.7 mg absolute manganese/ml stock solution was prepared in water and diluted to 0.069 mg absolute manganese/ml in drinking water, which provided mice with ˜15 mg absolute manganese/kg per day based on a daily water intake of ˜2-5 ml/mouse depending on age.\n(§2) Animals were euthanized using carbon dioxide and tissue dissected for qRT-PCR or ICPMS analyses as described by us previously (50).\n(§3) Quantitative RT-PCR assays. RNA extraction from HepG2 cells and mouse tissue, reverse transcription to cDNA, and qRT-PCR analyses were performed as described by us previously (47, 50). For analyses of mouse brain samples, a part of the midbrain, including the basal ganglia, was used. Transcript levels were quantified using the ΔΔCT method with 18S (in mice) or TBP (in HepG2 cells) as the internal control, also as described by us previously (47, 50)."}, "SLC39A8": {"system": "SLC39A8", "conditions": "oral manganese ~15 mg/kg daily from birth until 8 weeks", "experimental": "as §1, §2, §3"}, "[1]": {"system": "prolyl hydroxylase domain 2 (PHD2)", "conditions": "HepG2 cells, 250 μM manganese", "experimental": "as §3"}},
  "data": [
    {"molecule": "O.O.O.O.[Cl][Mn][Cl]", "note": "[manganese, manganeseCl2.4H2O]", "values": [
      {"measurement": "SLC30A10 protein levels after manganese", "setting": "SLC30A10", "value": "increased"},
      {"measurement": "Hepatic and brain SLC39A14 levels", "setting": "SLC39A14; 129S4/SvJaeJ mice", "value": "elevated"},
      {"measurement": "Intestinal SLC39A14 levels", "setting": "SLC39A14; C57BL/6J mice", "value": "enhanced"},
      {"measurement": "Hepatic and brain SLC39A8 levels", "setting": "SLC39A8; 129S4/SvJaeJ mice", "value": "elevated"},
      {"measurement": "Intestinal SLC39A8 levels", "setting": "SLC39A8; either strain", "value": "did not change"},
      {"measurement": "PHD2 levels in manganese-treated cells", "setting": "[1]", "value": "elevated"}
    ]}
  ]
}
